In patent US20230373952A1, “LACTAM COMPOUNDS AS Kv1.3 POTASSIUM SHAKER CHANNEL BLOCKERS” (D.E. Shaw Research, LLC, priority 2020, published 2023):

Legend:
hERG channel = hERG channel (Homo sapiens, UniProt Q12809); test: cell-based
Method: This assay is used to evaluate the disclosed compounds' inhibition activities against the hERG channel.
CHO-K1 cells stably expressing hERG were grown in Ham's F-12 Medium with glutamine containing 10% heat-inactivated FBS, 1% penicillin/streptomycin, hygromycin (100 μg/ml) and G418 (100 μg/ml). Cells were grown in culture flasks at 37° C. in a 5% CO2-humidified incubator.
All compounds were dissolved in DMSO at 30 mM. Compound stock solutions were freshly diluted with external solution to concentrations of 30 nM, 100 nM, 300 nM, 1 μM, 3 μM, 10 μM, 30 μM and 100 μM. The highest content of DMSO (0.3%) was present in 100 μM.
The voltage protocol (see Table I) was designed to simulate voltage changes during a cardiac action potential with a 300 ms depolarization to +20 mV (analogous to the plateau phase of the cardiac action potential), a repolarization for 300 ms to −50 mV (inducing a tail current) and a final step to the holding potential of −80 mV. The pulse frequency was 0.3 Hz. Control (compound-free) and compound pulse trains for each compound concentration applied contained 70 pulses.
Whole-cell current recordings and compound application were enabled by means of an automated patch clamp platform Patchliner (Nanion). EPC 10 patch clamp amplifier (HEKA) along with Patchmaster software (HEKA Elektronik Dr. Schulze GmbH) was used for data acquisition. Data were sampled at 10 kHz without filtering. Increasing compound concentrations were applied consecutively to the same cell without washouts in between.
AUC and PEAK values were obtained with Patchmaster (HEKA Elektronik Dr. Schulze GmbH). To determine IC50 the last single pulse in the pulse train corresponding to a given compound concentration was used. Obtained AUC and PEAK values in the presence of compound were normalized to control values in the absence of compound.

Kv1.3 potassium channel = target: T1, Kv1.3 potassium channel (Homo sapiens, UniProt P22001); test: Kv1.3 potassium channel blocker activity, automated whole-cell patch clamp (Patchliner); assay type: cell-based; conditions: CHO-K1 cells stably expressing Kv1.3; whole-cell current inhibition, Hill fit; read-out: Kv1.3 IC50
T1 construct: expressed in transfected cells
Method: CHO-K1 cells stably expressing Kv1.3 were grown in DMEM containing 10% heat-inactivated FBS, 1 mM sodium pyruvate, 2 mM L-glutamine and G418 (500 μg/ml).
The currents were evoked by applying 100 ms depolarizing pulses from −90 mV (holding potential) to +40 mV were applied with 0.1 Hz frequency. […] 10-second breaks were used between pulse trains (see Table H below).
Passive leak currents were subtracted online using a P/4 procedure (HEKA Elektronik Dr. Schulze GmbH). […] Total compound incubation time before the next pulse train was not longer than 10 seconds. Peak current inhibition was observed during compound equilibration.

T1 sequence (P22001 whole entry): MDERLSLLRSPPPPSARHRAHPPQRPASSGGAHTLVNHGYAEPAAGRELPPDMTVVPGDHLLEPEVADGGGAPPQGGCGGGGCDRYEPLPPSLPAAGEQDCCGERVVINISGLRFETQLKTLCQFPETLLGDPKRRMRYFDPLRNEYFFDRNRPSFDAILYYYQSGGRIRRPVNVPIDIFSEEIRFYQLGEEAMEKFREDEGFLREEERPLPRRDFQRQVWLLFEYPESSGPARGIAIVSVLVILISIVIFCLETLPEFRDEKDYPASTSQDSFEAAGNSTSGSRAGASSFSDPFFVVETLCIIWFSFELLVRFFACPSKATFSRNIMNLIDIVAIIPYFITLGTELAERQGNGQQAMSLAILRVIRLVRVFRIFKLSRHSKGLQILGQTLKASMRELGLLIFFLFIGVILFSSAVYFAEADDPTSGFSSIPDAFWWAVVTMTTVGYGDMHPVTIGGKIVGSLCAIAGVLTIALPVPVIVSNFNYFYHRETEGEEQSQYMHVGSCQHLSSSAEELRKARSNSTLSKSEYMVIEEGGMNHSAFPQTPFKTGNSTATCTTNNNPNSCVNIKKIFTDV
Sequence of hERG channel (Q12809 whole entry): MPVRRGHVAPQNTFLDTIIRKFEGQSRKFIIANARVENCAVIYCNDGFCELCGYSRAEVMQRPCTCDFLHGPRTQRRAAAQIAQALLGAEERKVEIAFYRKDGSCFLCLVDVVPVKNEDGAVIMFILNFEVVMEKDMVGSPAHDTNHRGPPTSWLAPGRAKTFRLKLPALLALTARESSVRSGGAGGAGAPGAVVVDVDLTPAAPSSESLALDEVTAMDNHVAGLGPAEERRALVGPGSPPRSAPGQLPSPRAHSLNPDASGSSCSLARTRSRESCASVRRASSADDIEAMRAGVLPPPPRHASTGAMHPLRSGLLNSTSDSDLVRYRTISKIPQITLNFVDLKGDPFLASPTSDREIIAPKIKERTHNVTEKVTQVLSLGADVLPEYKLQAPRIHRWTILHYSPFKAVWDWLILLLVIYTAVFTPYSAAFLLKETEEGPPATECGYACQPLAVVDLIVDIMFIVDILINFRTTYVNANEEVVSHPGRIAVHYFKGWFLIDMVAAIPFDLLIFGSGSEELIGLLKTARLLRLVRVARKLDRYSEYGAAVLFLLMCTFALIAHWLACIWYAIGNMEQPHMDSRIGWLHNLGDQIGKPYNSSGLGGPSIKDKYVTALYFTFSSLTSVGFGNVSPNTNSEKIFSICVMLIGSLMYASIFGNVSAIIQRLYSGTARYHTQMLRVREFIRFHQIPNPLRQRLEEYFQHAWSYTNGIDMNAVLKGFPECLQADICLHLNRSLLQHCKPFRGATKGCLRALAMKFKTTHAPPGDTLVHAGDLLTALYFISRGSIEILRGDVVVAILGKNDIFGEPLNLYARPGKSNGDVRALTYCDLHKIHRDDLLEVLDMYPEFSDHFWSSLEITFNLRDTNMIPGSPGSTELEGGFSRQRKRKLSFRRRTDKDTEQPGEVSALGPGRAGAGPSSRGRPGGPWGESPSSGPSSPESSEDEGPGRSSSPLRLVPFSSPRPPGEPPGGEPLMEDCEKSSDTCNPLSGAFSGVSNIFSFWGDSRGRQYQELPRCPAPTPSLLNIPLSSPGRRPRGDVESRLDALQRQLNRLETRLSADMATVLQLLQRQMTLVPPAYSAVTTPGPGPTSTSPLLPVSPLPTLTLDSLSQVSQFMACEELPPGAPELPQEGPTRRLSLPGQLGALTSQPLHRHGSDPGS

Structure (SMILES) | IC50 (Kv1.3 potassium channel) | IC50 (hERG channel)
O=C1C[C@@H](c2c(O)ccc(Cl)c2Cl)CN1[C@@H]1CCNC1 (single isomer, unassigned) [Compound 14, 4-(2,3-dichloro-6-hydroxyphenyl)-[1,3-bipyrrolidin]-2-one] | < 1 µM | > 30 µM
CC(CO)N1C[C@H](c2c(O)ccc(Cl)c2Cl)CC1=O (single isomer, unassigned; isomer 1) [Compound 38] | < 1 µM | > 30 µM
O=C1O[C@H](c2c(O)ccc(Cl)c2Cl)CN1CCO (single isomer, unassigned; isomer 1) [Compound 93, 5-(2,3-dichloro-6-hydroxyphenyl)-3-(2-hydroxyethyl)oxazolidin-2-one isomer 1] | < 1 µM | > 100 µM
O=C1CO[C@H](c2c(O)ccc(Cl)c2Cl)CN1CCO (single isomer, unassigned; isomer 1) [Compound 95, 6-(2,3-dichloro-6-hydroxyphenyl)-4-(2-hydroxyethyl)morpholin-3-one isomer 1] | < 1 µM | > 100 µM
C[C@@H](CO)N1C[C@H](c2c(O)ccc(Cl)c2Cl)CC1=O (single isomer, unassigned; isomer 2) [Compound 39] | < 1 µM | > 100 µM
O=C1O[C@@H](c2c(O)ccc(Cl)c2Cl)CN1CCO (single isomer, unassigned; isomer 2) [Compound 94, 5-(2,3-dichloro-6-hydroxyphenyl)-3-(2-hydroxyethyl)oxazolidin-2-one isomer 2] | < 1 µM | > 100 µM
C[C@@H]1C(=O)N(C2CNC2)C[C@@H]1c1c(O)ccc(Cl)c1Cl (single isomer, unassigned; isomer 4) [Compound 90, 1-(azetidin-3-yl)-4-(2,3-dichloro-6-hydroxyphenyl)-3-methylpyrrolidin-2-one isomer 4] | < 1 µM | > 100 µM
CC1[C@@H](c2c(O)ccc(Cl)c2Cl)CC(=O)N1C1CNC1 (stereo in doubt) [Compound 76, (4R,5R)-1-(azetidin-3-yl)-4-(2,3-dichloro-6-hydroxyphenyl)-5-methylpyrrolidin-2-one] | < 1 µM | > 100 µM
CC1[C@H](c2c(O)ccc(Cl)c2Cl)CC(=O)N1C1CNC1 (stereo in doubt) [Compound 77, (4S,5S)-1-(azetidin-3-yl)-4-(2,3-dichloro-6-hydroxyphenyl)-5-methylpyrrolidin-2-one] | < 0.1 µM | > 30 µM
CC1[C@H](c2c(O)ccc(Cl)c2Cl)CC(=O)N1C[C@H](O)CO (stereo in doubt) [Compound 79, (4S,5S)-4-(2,3-dichloro-6-hydroxyphenyl)-1-[(2S)-2,3-dihydroxypropyl]-5-methylpyrrolidin-2-one] | < 0.1 µM | > 30 µM
CC1[C@H](c2c(O)ccc(Cl)c2Cl)CC(=O)N1CCO (stereo in doubt) [Compound 81, (4S,5S)-4-(2,3-dichloro-6-hydroxyphenyl)-1-(2-hydroxyethyl)-5-methylpyrrolidin-2-one] | < 0.1 µM | > 30 µM
O=C1C[C@@H](c2c(O)ccc(Cl)c2Cl)CN1C1CN(CCO)C1 [Compound 16, (4S)-4-(2,3-dichloro-6-hydroxyphenyl)-1-[1-(2-hydroxyethyl)azetidin-3-yl]pyrrolidin-2-one] | < 0.1 µM | > 10 µM
O=C1C[C@@H](c2c(O)ccc(Cl)c2Cl)CN1C1CCOCC1 [Compound 17, (4S)-4-(2,3-dichloro-6-hydroxyphenyl)-1-(pyran-4-yl)pyrrolidin-2-one] | < 1 µM | > 30 µM
O=C1C[C@@H](c2c(O)ccc(Cl)c2Cl)CN1C1CNC1 [Compound 19, (4S)-1-(azetidin-3-yl)-4-(2,3-dichloro-6-hydroxyphenyl)pyrrolidin-2-one] | < 0.1 µM | > 100 µM
O=C1C[C@@H](c2c(O)ccc(Cl)c2Cl)CN1CC1CNC1 [Compound 20, (4S)-1-(azetidin-3-ylmethyl)-4-(2,3-dichloro-6-hydroxyphenyl)pyrrolidin-2-one] | < 0.1 µM | > 100 µM
NCCN1C[C@H](c2c(O)ccc(Cl)c2Cl)CC1=O [Compound 21, (4S)-1-(2-aminoethyl)-4-(2,3-dichloro-6-hydroxyphenyl)pyrrolidin-2-one] | < 0.1 µM | > 100 µM
O=C1C[C@@H](c2cc(Cl)c(Cl)cc2O)CN1C1CNC1 [Compound 22, (4S)-1-(azetidin-3-yl)-4-(4,5-dichloro-2-hydroxyphenyl)pyrrolidin-2-one] | < 1 µM | > 100 µM
Cn1cc(CN2C[C@H](c3c(O)ccc(Cl)c3Cl)CC2=O)cn1 [Compound 23, (4S)-4-(2,3-dichloro-6-hydroxyphenyl)-1-[(1-methylpyrazol-4-yl)methyl]pyrrolidin-2-one] | < 1 µM | > 30 µM
O=C1C[C@@H](c2c(O)ccc(Cl)c2Cl)CN1C1COC1 [Compound 24, (S)-4-(2,3-dichloro-6-hydroxyphenyl)-1-(oxetan-3-yl)pyrrolidin-2-one] | < 0.1 µM | > 30 µM
O=C1C[C@@H](c2c(O)ccc(Cl)c2Cl)CN1CCO [Compound 29, (4S)-4-(2,3-dichloro-6-hydroxyphenyl)-1-(2-hydroxyethyl)pyrrolidin-2-one] | < 0.1 µM | > 30 µM

Second part, led by results:

IC50 (Kv1.3 potassium channel) | Structure (SMILES) | IC50 (hERG channel)
< 0.1 µM | O=C1C[C@H](c2c(O)ccc(Cl)c2Cl)CN1[C@@H]1CCNC1 (single isomer, unassigned) [Compound 13, 4-(2,3-dichloro-6-hydroxyphenyl)-[1,3-bipyrrolidin]-2-one] | > 10 µM
< 0.1 µM | O=C1C[C@H](c2c(O)ccc(Cl)c2Cl)CN1[C@H]1CCNC1 (single isomer, unassigned) [Compound 15, 4-(2,3-dichloro-6-hydroxyphenyl)-[1,3-bipyrrolidin]-2-one] | > 30 µM
< 0.1 µM | O=C1C[C@@H](c2c(O)ccc(Cl)c2Cl)CN1[C@H]1C[C@H](CO)C1 (single isomer, unassigned; isomer 1) [Compound 25] | > 30 µM
< 0.1 µM | O=C1C[C@@H](c2c(O)ccc(Cl)c2Cl)CN1C[C@H]1C[C@H](O)C1 (single isomer, unassigned; isomer 1) [Compound 31] | > 30 µM
< 0.1 µM | NC[C@@H](O)CN1C[C@H](c2c(O)ccc(Cl)c2Cl)CC1=O (single isomer, unassigned; isomer 1) [Compound 51] | > 100 µM
< 0.1 µM | O=C1C[C@@H](c2c(O)ccc(Cl)c2Cl)CN1[C@H]1C[C@@H](CO)C1 (single isomer, unassigned; isomer 2) [Compound 26] | > 30 µM
< 0.1 µM | O=C1C[C@@H](c2c(O)ccc(Cl)c2Cl)CN1C[C@H]1C[C@@H](O)C1 (single isomer, unassigned; isomer 2) [Compound 32] | > 30 µM
< 0.1 µM | NCC(O)CN1C[C@H](c2c(O)ccc(Cl)c2Cl)CC1=O (single isomer, unassigned; isomer 2) [Compound 52] | > 100 µM
< 0.1 µM | O=C1C[C@@H](c2c(O)ccc(Cl)c2Cl)CN1[C@H]1C[C@@](O)(CO)C1 (single isomer, unassigned; isomer 3) [Compound 70] | > 100 µM
< 0.1 µM | O=C1C[C@@H](c2c(O)ccc(Cl)c2Cl)CN1[C@H]1C[C@](O)(CO)C1 (single isomer, unassigned; isomer 4) [Compound 71] | > 100 µM
